Legend:
HL-60 cells = assay: Copper determination in chelator treated cells (atomic absorption); type: cell-based, human; settings: for activity at 20 µM / activity at 100 µM / activity at 500 µM: Homo sapiens, HL-60, read-out: Average Intracellular Cu (% of control)
Description: Copper Determination: Cells were harvested by centrifugation at 1000×g for 5 minutes. The cell pellet was washed three times by re-suspending the cells in PBS (Ca^++ and Mg^++ free) and centrifugation at 1000×g. An aliquot containing 2×10^6 cells was then transferred into a metal-free Eppendorf tube and the cells were recovered by centrifugation at 1000×g. The cell pellet was re-suspended in 0.03 M ultra-pure nitric acid to give a concentration of 1×10^7 cells/ml. The cells were homogenized with a high shear mixer (polytron, Kinematica, Switzerland) for 1 minutes to disrupt the cell and release intracellular copper content. Cell samples were vortexed before transferring to a vial autosampler and analyzed in duplicate by a Perkin Elmer graphite furnace atomic absorption spectrophotometer at a wavelength of 324.7 nm. The samples were analyzed against copper standard solution prepared from a commercial stock solution that was diluted with 0.03 M ultra pure nitric acid.
FIG. 44 provides the chemical structure of the various chelators employed in these experiments.

[1] = system: Mouse erythroleukemic cells (MEL); assay: HMBA-induced differentiation of erythroleukemic cells; type: cell-based; settings: day 3
Description: Mouse erythroleukemic cells (MEL): MEL cells are erythroblast like cells. Following treatment with several chemicals (differentiation inducers) the cells undergo erythroid differentiation and accumulate hemoglobin. […] At day 3 of the culture, the total number of cells and the percentage of hemoglobin-containing cells were determined (Table 7).
On day 3, total cell number and hemoglobin containing (benzidine positive) cells were determined.

CD34 cells = assay: Transition metal chelators in CD34+ cell liquid cultures (cell number, CD34 cells, clonability); type: cell-based, human; settings: for cell proliferation and CFUc expansion in long-term CD34 cultures: long term cultures with early cytokines
Description: The interphase layer of mononuclear cells were collected, washed three times with Ca/Mg free phosphate buffered saline containing 1% bovine serum albumin (BSA). The cells were incubated for 30 min. at 4° C. with murine monoclonal anti CD34 antibody (0.5 μg/10^6 mononuclear cells) and thereafter isolated using the miniMACS apparatus (Miltenyi-Biotec, Bergisch, Gladbach, Germany) according to the manufacturer's protocol.
Culture procedures: For the expansion of progenitor cells, CD34^+ enriched fractions or unseparated mononuclear cells were seeded at about 1-3×10^4 cells/ml in either alpha minimal essential medium containing 10% preselected fetal calf serum (FCS) (both from GIBCO, Grand Island, N.Y.), or serum-free medium (Progenitor-34 medium, Life Technologies, Grand Island, N.Y.). The media were supplemented with a mixture of growth factors and transition metal chelators. The cultures were incubated at 37° C. in an atmosphere of 5% CO2 in air with extra humidity. Half of the medium was changed weekly with fresh medium containing all the supplements.
Cloning potential evaluations: The cloning potential of cells developed in the liquid culture was assayed, at different intervals, in semi-solid medium. The cells were washed and seeded in 35 mm dishes in methylcellulose containing alpha medium supplemented with recombinant growth factors (SCF, G-CSF, GM-CSF and EPO). Following 2 weeks incubation, the cultures were scored with an inverted microscope. Colonies were classified as blast, mixed, erythroid, myeloid, and megakaryocytic, according to their cellular composition.
Morphological assessment: In order to characterize the resulting culture populations, aliquots of cells were deposited on a glass slide (cytocentrifuge, Shandon, Runcorn, UK), fixed and stained in May-Grunwald Giemsa. Other aliquots were stained by benzidine for intracellular hemoglobin.
Immunofluorescence staining: At different intervals, cells from the liquid cultures were assayed for CD34 antigen. Aliquots were harvested, washed and incubated on ice with FITC-labeled anti CD45 monoclonal antibody and either PE-labeled anti CD34 (HPCA-2) monoclonal antibody or PE-labeled control mouse Ig. After incubation, red cells were lysed with lysing solution, while the remaining cells were washed and analyzed by flow cytometer.
Flow cytometry: Cells were analyzed and sorted using FACStar^plus flow cytometer (Becton-Dickinson, Immunofluorometry systems, Mountain View, Calif.). Cells were passed at a rate of 1,000 cells/second through a […] nozzle, using saline as the sheath fluid. […] The PMTs was set at the appropriate voltage. Logarithmic amplification was applied for measurements of fluorescence and linear amplification—for forward light scatter. At least 10^4 cells were analyzed.
Cord blood-derived CD34 cells were plated in liquid culture in the presence of: FL—50 ng/ml, SCF—50 ng/ml, IL-6—50 ng/ml, with or without IL-3—20 ng/ml, with or without TEPA—10 μM. On day 7, the percentage of CD34 cells and the total cell number were determined. Aliquots equivalent to 1×10^3 initiating cells were assayed on days 0 and 7 for colony forming cells (CFU) by cloning in semi-solid medium. CFU expansion represents the ratio of CFU present on day 7 to CFU present on day 0.
CD34^+ cells derived from human neonatal cord blood were purified by immunomagnetic method and then cultured in liquid medium supplemented with cytokines either with or without transition metal chelators. At weekly intervals, the cultures were demi-depopulated by removing half of the culture content (supernatant and cells) and replacing it with fresh medium, cytokines and the chelators. At the indicated weeks the cellular content of the cultures were quantified for total cells (by a manual microscopic/hemocytometric method), for CD34^+ cells (by immuno-flow cytometry) and for clonogenic cells (by cloning the cells in cytokine-supplemented semi-solid medium).

CD34+ cells [2] = assay: Ex vivo expansion of CD34+ cell enriched cultures with RXR, RAR and RAR+RXR antagonists (CFU, CD34+ counts, FACS); type: cell-based, human
Description: Cultures were prepared and maintained as described above.
, the percentage of cells bearing the CD34^+ marker (considered to be mostly committed progenitor cells), as well as the percentage of cells bearing the markers CD34^+/CD38^− and CD34^+Lin^− […]

CD34+ cells [3] = assay: Nicotinamide supplementation of ex-vivo hematopoietic stem/progenitor cell cultures; type: cell-based, human; settings: for CD34+ cells per ml: 5 cytokines, re-selected
Description: Cultures were prepared and maintained as described above. Nicotinamide was added to cell cultures at concentrations of 1, 5 or 10 mM for up to three weeks culture period. All other procedures including mononuclear cell fraction collection and purification, purification of CD34^+ cells from mononuclear cell fractions, ex-vivo expansion of stem/progenitor cell populations, morphological assessment, surface antigen analysis, determination of CD34, CD38, Lin and other hematopoietic marker expression and cell population calculations were carried out as described in the experimental methods section of Example 1 above.
Hematopoietic CD34+ cell cultures were initiated in the presence of a combination of 5 cytokines, SCF, TPO, FLt3, IL-6 and IL-3, with or without different concentrations of nicotinamide. Following three weeks incubation period, the CD34+ cells were re-selected from culture by affinity re-purification method and were enumerated. […] In addition, the re-selected CD34+ cell fraction was FACS analyzed for stem/progenitor cell markers. The results, presented in FIGS. 15-17 and 18a-b, show substantial increases in the proportion of CD34+/CD38−, CD34+/Lin− and CD34+/(HLA-DR38−) cells in cultures treated with nicotinamide.

[4] = polyamine chelating agents, long-term CD34 cultures (FIGS. 39a-b)
[5] = HX-531 (10^−5M in table head), 3 weeks after seeding

Average Intracellular ppb Cu (HL-60 cells; 20 μM chelator)	Average Intracellular ppb Cu (HL-60 cells; 100 μM chelator)	Average Intracellular ppb Cu (HL-60 cells; 500 μM chelator)	Compound	activity at 20 µM (HL-60 cells; 20 μM chelator)	activity at 100 µM (HL-60 cells; 100 μM chelator)	activity at 500 µM (HL-60 cells; 500 μM chelator)	also measured
15.8 ppb	17.7 ppb	–	C1CNCCNCCN1.Cl.Cl.Cl [1,4,7-Triazacyclononane trihydrochloride]	32%	36%	–	–
37.9 ppb	27.4 ppb	28.3 ppb	O=C1CC(=O)NCCNCCCNCCN1 [1,4,8,11-Tetraaza cyclotetradecane-5,7-dione]	77%	56%	57%	–
13.4 ppb	12.1 ppb	9.6 ppb	C1CNCCCNCCNCCCNC1 [1,4,8,12-tetraaza cyclopentadecane]	27%	25%	19%	–
35.5 ppb	36.1 ppb	35.0 ppb	C1COCCNCCOCCN1 [1,7-Dioxa-4,10-diazacyclododecane]	72%	73%	71%	–
39.0 ppb	22.9 ppb	17.6 ppb	C1CNCCOCCNCCN1 [1-Oxa-4,7,10-triazacyclododecane]	79%	46%	36%	–
–	–	–	C[C@H](CS)C(=O)N1CCC[C@H]1C(=O)O [Captopril, captopril]	–	–	–	Benzidine Positive Cells (%) ([1]; HMBA + chelator 20 μM): 29%; Cells/ml (×10^4) ([1]; HMBA + chelator 20 μM): 34 ×10^4; Benzidine Positive Cells (%) ([1]; HMBA + chelator 40 μM): 12%; Cells/ml (×10^4) ([1]; HMBA + chelator 40 μM): 34 ×10^4
–	–	–	NCCN [EDA, ethylenediamine]	–	–	–	cell proliferation and CFUc expansion in long-term CD34 cultures (CD34 cells): support continuous cell proliferation and long-term generation of CFUc and to delay cell differentiation; concentration with optimal activity (CD34 cells; [4]): 20 µM
–	–	–	CC(=O)NCCCCCCNC(C)=O [HMBA, hexamethylene bisacetamide]	–	–	–	Benzidine Positive Cells (%) ([1]; HMBA 4 mM alone): 46%; Cells/ml (×10^4) ([1]; HMBA 4 mM alone): 32 ×10^4
–	–	–	CN1c2ccc([N+](=O)[O-])cc2N=C(c2ccc(C(=O)O)cc2)c2cc3c(cc21)C(C)(C)CCC3(C)C [HX-531, 4-[5H-2,3-(2,5-Dimethyl-2,5-Hexano) 5-Methyl-8-nitrodibenzo [b,e][1,4]diazepin-11-yl) Benzoic acid]	–	–	–	CD34^+ (×10^4) (CD34+ cells [2]; [5]): 167 ×10^4; CFU (×10^3) (CD34+ cells [2]; [5]): 1920 ×10^3; CFU mixed (×10^3) (CD34+ cells [2]; HX-531, 3 weeks after seeding): 120 ×10^3; CD34^+ (×10^4) (CD34+ cells [2]; HX-531, 5 weeks after seeding): 1636 ×10^4; CFU (×10^3) (CD34+ cells [2]; HX-531, 5 weeks after seeding): 8542 ×10^3; CD34^+ (×10^4) (CD34+ cells [2]; HX-531, 9 weeks after seeding): 4977 ×10^4; CFU (×10^3) (CD34+ cells [2]; HX-531, 9 weeks after seeding): 36557 ×10^3; CD34^+ (×10^4) (CD34+ cells [2]; HX-531, 11 weeks after seeding): 4055 ×10^4; CFU (×10^3) (CD34+ cells [2]; HX-531, 11 weeks after seeding): 67338 ×10^3
–	–	–	CCCOc1cc2c(cc1\C(C)=C/C=C/C(C)=C/C(=O)O)C(C)(C)CCC2(C)C [LGN 100754]	–	–	–	activity on ex vivo expansion of stem/progenitor cells (CFU, CD34+, CD34+/38−, CD34+/Lin−) (CD34+ cells [2]; 10^−7 M, with TPO, FLT3, IL-6 and IL-3, 3 and 5 weeks): no activity
33.8 ppb	26.2 ppb	27.9 ppb	NCCCNCCCNCCCN [N,N′-bis(3-aminopropyl)-1,3-propanediamine]	69%	53%	57%	–
–	–	–	NC(=O)c1cccnc1 [Nicotinamide]	–	–	–	CD34+ cells per ml (CD34+ cells [3]; 1 mM nicotinamide, three weeks): 99×10^4 cells per ml; increase in CD34+/CD38− cells density vs untreated control (CD34+ cells [3]; 1 mM, three weeks): 1.7 fold; increase in CD34+/Lin− cells density vs untreated control (CD34+ cells [3]; 1 mM, three weeks): 10.5 fold; CD34+ cells per ml (CD34+ cells [3]; 5 mM nicotinamide, three weeks): 180×10^4 cells per ml; increase in CD34+/(HLA-DR38−) cells density vs untreated control (CD34+ cells [3]; 5 mM, three weeks): 11.5 fold; increase in CD34+/CD38− cells density vs untreated control (CD34+ cells [3]; 5 mM, three weeks): 51.7 fold; increase in CD34+/Lin− cells density vs untreated control (CD34+ cells [3]; 5 mM, three weeks): 205.5 fold; % of CD34^+/CD38^− of total cells (CD34+ cells [3]; Nicotinamide 5 mM): 9.69%; % of CD34^+/Lin^− of total cells (CD34+ cells [3]; Nicotinamide 5 mM): 4.11%; % of CD34^+/CD38^− of total cells (CD34+ cells [3]; Nicotinamide 10 mM): 34.67%; % of CD34^+/Lin^− of total cells (CD34+ cells [3]; Nicotinamide 10 mM): 16.58%
–	–	–	CC(C)(S)[C@@H](N)C(=O)O [PEN, Penicillamine]	–	–	–	cell proliferation and CFUc expansion in long-term CD34 cultures (CD34 cells): sustained cell proliferation and expansion of clonogenic cells; concentration with optimal activity (CD34 cells; transition metal chelating agents, long-term CD34 cultures (FIGS. 40a-b)): 5 µM
27.7 ppb	21.2 ppb	16.8 ppb	NCCNCCNCCN [TETA, triethylene-tetramine]	56%	43%	34%	cell proliferation and CFUc expansion in long-term CD34 cultures (CD34 cells): support continuous cell proliferation and long-term generation of CFUc and to delay cell differentiation; concentration with optimal activity (CD34 cells; [4]): 20 µM
–	–	–	Copper	–	–	–	effect on TEPA activities (CD34 cells; TEPA-treated cultures supplemented with Copper): reversed
–	–	–	Zinc	–	–	–	cell proliferation and CFUc expansion in long-term CD34 cultures (CD34 cells): mimicked the effect of the chelating agents in long term cultures, but to a smaller extent than the chelators themselves

Compound	Average Intracellular ppb Cu (HL-60 cells; 20 μM chelator)	Average Intracellular ppb Cu (HL-60 cells; 100 μM chelator)	Average Intracellular ppb Cu (HL-60 cells; 500 μM chelator)	activity at 20 µM (HL-60 cells; 20 μM chelator)	activity at 100 µM (HL-60 cells; 100 μM chelator)	activity at 500 µM (HL-60 cells; 500 μM chelator)	also measured
NCCCN(CCN)CCN [N,N,Bis (2 animoethyl) 1,3 propane diamine]	10.8 ppb	13.4 ppb	–	–	–	–	Average Intracellular Cu (% of control) (HL-60 cells; 20 μM chelator): 22%; Average Intracellular Cu (% of control) (HL-60 cells; 100 μM chelator): 27%
Glycyl-glycyl-histidine Cu complex	202.7 ppb	582 ppb	1278 ppb	–	–	–	Average Intracellular Cu (% of control) (HL-60 cells; 20 μM chelator): 411%; Average Intracellular Cu (% of control) (HL-60 cells; 100 μM chelator): 1181%; Average Intracellular Cu (% of control) (HL-60 cells; 500 μM chelator): 2592%
